Common to all, as to assay type: in vivo
The test system of assay [1] is E. adenoeides. Description: Example 10: oocysts per gram fecal material, E. adenoeides. To be noted: Composition 250 ppm, Monensin 68 ppm, alone or combined. How it is done:
(§1) In this examples the effect of a composition comprising Quillaja saponaria and Yucca schidigera in combination with Monensin was determined. In some embodiments, the composition was a commercial product sold under the trade name MAGNI-PHI by Phibro Animal Health Corporation. Four treatment regimens were used: a control with no medication; 250 ppm of the composition; 68 ppm Monensin; and 250 ppm composition in combination with 68 ppm Monensin.
(§2) On Days 14, 21, and 28 fresh fecal samples were collected from each pen. These representative samples were tested to determine the degree of coccidia oocysts per gram of litter, by determining oocysts shedding/cycling. Oocysts per gram were determined for each sample.

For assay [2], the system named is E. meleagrimitis. Description: Example 10: oocysts per gram fecal material, E. meleagrimitis. Conditions: Composition 250 ppm, Monensin 68 ppm, alone or combined. How it is done:
as §1, §2

The subject of assay [3] is coccidia. Description: Example 10: composition in combination with Monensin: performance, total coccidia oocysts per gram. Conditions: Composition 250 ppm, Monensin 68 ppm, alone or combined; for Adj. FCR / Feed Intake / Wt. Gain: D 0-42. How it is done: as §1, §2
Assay [4] relates to E. gallopavonis. Description: Example 10: oocysts per gram fecal material, E. gallopavonis. Conditions: Composition 250 ppm, Monensin 68 ppm, alone or combined. The procedure:
as §1, §2

The subject of assay [5] is coccidial contaminated litter. Description: Example 2: live performance of male broiler chickens, coccidial contaminated litter added to pens. To be noted: 22 ppm Virginiamycin, throughout the test. The procedure: In this example, the live performance of male broiler chickens during a standard diet program with and without an embodiment of the disclosed combination was determined. In this embodiment, the combination comprised Virginiamycin and different levels of the composition, particularly 0 ppm, 150 ppm, 200 ppm, and 250 ppm, and further comprising Avatec 90. A disease challenge was presented in each pen by adding coccidial contaminated litter to the pen.

Data on two compounds can be found in patent publication US10413581B2, “Combination, composition, and method of administering the combination or composition to animals” (Phibro Animal Health Corporation, priority 2014, dated 2019).

For the compound `CC[C@@]1([C@@H]2O[C@@H]([C@H]3O[C@@](O)(CO)[C@H](C)C[C@@H]3C)C[C@@H]2C)CC[C@H]([C@]2(C)CC[C@]3(C[C@H](O)[C@@H](C)[C@@H]([C@@H](C)[C@@H](OC)[C@H](C)C(=O)O)O3)O2)O1` [Monensin], the “Oocysts per gram fecal material E. aden.” value in assay [1] (D 14) stood at 356ab oocysts per gram; in assay [1] (D 21), 237bc oocysts per gram; in assay [1] (D 28), 29b oocysts per gram. Besides, the “Oocysts per gram fecal material E. mel.” value turned out to be 786b oocysts per gram in assay [2] (D 14), 2549c oocysts per gram in assay [2] (D 21) and 74b oocysts per gram in assay [2] (D 28). Further, the figures for the “Oocysts per gram fecal material Total” value in assay [3] (D 14), in assay [3] (D 21) and in assay [3] (D 28) were 1571bc oocysts per gram, 3409c oocysts per gram and 252b oocysts per gram, respectively. Further, the “Adj. FCR” value turned out to be 1.473b in assay [3] (Day 14), 1.562b in assay [3] (Day 28) and 1.707b in assay [3] (Day 42). The “Feed Intake” value in assay [3] (Day 14) was found to be 20.04b; in assay [3] (Day 28), 51.81a; in assay [3] (Day 42), 124.77b. For the same compound, the “Wt. Gain” value in assay [3] (Day 14) came out at 0.261a kg; in assay [3] (Day 28) it was 0.703a kg; in assay [3] (Day 42), 1.614bc kg. In addition, the “Oocysts per gram fecal material E. gallo.” value was 430ab oocysts per gram in assay [4] (D 14), 623a oocysts per gram in assay [4] (D 21) and 119a oocysts per gram in assay [4] (D 28).
In the case of Virginiamycin, in assay [5], the feed conversion rates entry is “improved feed conversion rates”.
